Molecules are shown by their SMILES.

The assay deals with human FXR (NR1H4) (Homo sapiens (Human), UniProt Q96RI1). Kind of assay: Human FXR (NR1H4) Assay (Gal4 promoter driven luciferase reporter, Indigo Bioscience kit).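 For Efficacy (%): 100% equals the efficacy of CDCA; efficacy normalized to CDCA set as 100%.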 The conditions noted are these: for EC50: Human FXR (NR1H4) Assay, potency ranges; for Emax: read-out: Efficacy (%). It is filed as cell-based. The gist of the method:
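CHO reporter cells expressing human FXR with an FXR-responsive luciferase reporter, treated with compound doses at 0.2% DMSO. Incubation lasted 22 h at 37 °C before luciferase detection reagent was added. Luminescence was then read.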
A general note: In a reporter assay the amount or activity of a reporter protein is the signal.

Sequence of human FXR (NR1H4) (Q96RI1 whole entry, the tested form may be a part): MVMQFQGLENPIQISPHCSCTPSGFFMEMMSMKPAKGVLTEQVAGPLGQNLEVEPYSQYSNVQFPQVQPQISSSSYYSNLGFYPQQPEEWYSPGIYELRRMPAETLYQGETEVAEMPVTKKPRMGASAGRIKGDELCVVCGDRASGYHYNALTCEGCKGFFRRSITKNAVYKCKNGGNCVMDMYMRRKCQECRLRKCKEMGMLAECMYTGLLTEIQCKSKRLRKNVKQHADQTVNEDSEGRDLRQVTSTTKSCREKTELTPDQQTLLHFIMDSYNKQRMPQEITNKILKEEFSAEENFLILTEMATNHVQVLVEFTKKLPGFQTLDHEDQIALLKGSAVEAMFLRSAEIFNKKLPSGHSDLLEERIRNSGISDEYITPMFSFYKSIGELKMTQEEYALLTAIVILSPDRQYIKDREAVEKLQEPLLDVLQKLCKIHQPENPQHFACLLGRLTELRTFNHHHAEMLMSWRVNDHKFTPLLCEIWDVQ

The EC50 is the midpoint of the concentration-response curve. For `CC[C@H]1[C@@H](O)[C@@H]2[C@H](CC[C@]3(C)[C@@H]([C@H](C)CCCOC(=O)NS(=O)(=O)c4ccc5ccccc5c4)CC[C@@H]23)[C@@]2(C)CC[C@@H](O)C[C@@H]12` [Example 115], the EC50 was 100 to 1000 nM and the Emax was 376%.
The matching figures for `CC[C@H]1[C@@H](O)[C@@H]2[C@H](CC[C@]3(C)[C@@H]([C@H](C)CCCOC(=O)NS(=O)(=O)c4ccc(-c5ccccc5)cc4)CC[C@@H]23)[C@@]2(C)CC[C@@H](O)C[C@@H]12` [Example 116]: 1000 to 10000 nM and 294%.
The matching figures for `CC[C@H]1[C@@H](O)[C@@H]2[C@H](CC[C@]3(C)[C@@H]([C@H](C)CCCOC(=O)NS(=O)(=O)C(C)(C)C)CC[C@@H]23)[C@@]2(C)CC[C@@H](O)C[C@@H]12` [Example 117]: 100 to 1000 nM and 365%.
The matching figures for `CC[C@H]1[C@@H](O)[C@@H]2[C@H](CC[C@]3(C)[C@@H]([C@H](C)CCCOC(=O)NS(=O)(=O)N(C)C)CC[C@@H]23)[C@@]2(C)CC[C@@H](O)C[C@@H]12` [Example 118]: 100 to 1000 nM and 367%.
In the case of `CC[C@H]1[C@@H](O)[C@@H]2[C@H](CC[C@]3(C)[C@@H]([C@H](C)CCCOC(=O)NS(=O)(=O)N4CCCC4)CC[C@@H]23)[C@@]2(C)CC[C@@H](O)C[C@@H]12` [Example 119], the EC50 lay within 1000 to 10000 nM and the Emax came to 370%.
Consider `CC[C@H]1[C@@H](O)[C@@H]2[C@H](CC[C@]3(C)[C@@H]([C@H](C)CCCOC(=O)NS(=O)(=O)C4CCCC4)CC[C@@H]23)[C@@]2(C)CC[C@@H](O)C[C@@H]12` [Example 120], for which the EC50 lay within 100 to 1000 nM and the Emax is 485%.
As to `CC[C@H]1[C@@H](O)[C@@H]2[C@H](CC[C@]3(C)[C@@H]([C@H](C)CCCOC(=O)Nc4ccc(C(C)(C)C)cc4)CC[C@@H]23)[C@@]2(C)CC[C@@H](O)C[C@@H]12` [Example 121], the concentration giving a half-maximal response (EC50) lay within 1000 to 10000 nM and the Emax was determined as 8%.
Regarding `CC[C@H]1[C@@H](O)[C@@H]2[C@H](CC[C@]3(C)[C@@H]([C@H](C)CCCOC(=O)NC4CC4)CC[C@@H]23)[C@@]2(C)CC[C@@H](O)C[C@@H]12` [Example 122], the EC50 lay within 100 to 1000 nM and the Emax turned out to be 204%.
`CC[C@H]1[C@@H](O)[C@@H]2[C@H](CC[C@]3(C)[C@@H]([C@H](C)CCOC(=O)NC4CC4)CC[C@@H]23)[C@@]2(C)CC[C@@H](O)C[C@@H]12` [Example 123]: the EC50 is under 100 nM and the Emax stood at 379%.
The matching figures for `CC[C@H]1[C@@H](O)[C@@H]2[C@H](CC[C@]3(C)[C@@H]([C@H](C)CCCOC(=O)NCc4ccccc4)CC[C@@H]23)[C@@]2(C)CC[C@@H](O)C[C@@H]12` [Example 124]: 100 to 1000 nM and 225%.
The matching figures for `CC[C@H]1[C@@H](O)[C@@H]2[C@H](CC[C@]3(C)[C@@H]([C@H](C)CCOC(=O)NCc4ccccc4)CC[C@@H]23)[C@@]2(C)CC[C@@H](O)C[C@@H]12` [Example 125]: 100 to 1000 nM and 305%.
For `CC[C@H]1[C@@H](O)[C@@H]2[C@H](CC[C@]3(C)[C@@H]([C@H](C)CCCOC(=O)NC4CCCCC4)CC[C@@H]23)[C@@]2(C)CC[C@@H](O)C[C@@H]12` [Example 126], the EC50 fell in the range of 1000 to 10000 nM and the Emax was found to be 187%.
The matching figures for `CC[C@H]1[C@@H](O)[C@@H]2[C@H](CC[C@]3(C)[C@@H]([C@H](C)CCOC(=O)NC4CCCCC4)CC[C@@H]23)[C@@]2(C)CC[C@@H](O)C[C@@H]12` [Example 127]: 100 to 1000 nM and 308%.
For the compound `CC[C@H]1[C@@H](O)[C@@H]2[C@H](CC[C@]3(C)[C@@H]([C@H](C)CCCOC(=O)N(C)C)CC[C@@H]23)[C@@]2(C)CC[C@@H](O)C[C@@H]12` [Example 128], the EC50 is 1000 to 10000 nM and the Emax was found to be 138%.
The matching figures for `CC[C@H]1[C@@H](O)[C@@H]2[C@H](CC[C@]3(C)[C@@H]([C@H](C)CCOC(=O)N(C)C)CC[C@@H]23)[C@@]2(C)CC[C@@H](O)C[C@@H]12` [Example 129]: 100 to 1000 nM and 323%.
The matching figures for `CC[C@H]1[C@@H](O)[C@@H]2[C@H](CC[C@]3(C)[C@@H]([C@H](C)CCCOC(=O)N4CCOCC4)CC[C@@H]23)[C@@]2(C)CC[C@@H](O)C[C@@H]12` [Example 130]: 1000 to 10000 nM and 256%.
As to `CC[C@H]1[C@@H](O)[C@@H]2[C@H](CC[C@]3(C)[C@@H]([C@H](C)CCCOC(=O)N4CCCC4)CC[C@@H]23)[C@@]2(C)CC[C@@H](O)C[C@@H]12` [Example 131], the EC50 was 100 to 1000 nM and the Emax was 202%.
The matching figures for `CC[C@H]1[C@@H](O)[C@@H]2[C@H](CC[C@]3(C)[C@@H]([C@H](C)CCCOC(=O)N(CC)CC)CC[C@@H]23)[C@@]2(C)CC[C@@H](O)C[C@@H]12` [Example 132]: 1000 to 10000 nM and 205%.
The matching figures for `CC[C@H]1[C@@H](O)[C@@H]2[C@H](CC[C@]3(C)[C@@H]([C@H](C)CCOC(=O)NC4CCC4)CC[C@@H]23)[C@@]2(C)CC[C@@H](O)C[C@@H]12` [Example 133]: under 100 nM and 283%.
Regarding `CC[C@H]1[C@@H](O)[C@@H]2[C@H](CC[C@]3(C)[C@@H]([C@H](C)CCOC(=O)NC4CCCC4)CC[C@@H]23)[C@@]2(C)CC[C@@H](O)C[C@@H]12` [Example 134], the EC50 is 100 to 1000 nM and the Emax came to 267%.
The matching figures for `CC[C@H]1[C@@H](O)[C@@H]2[C@H](CC[C@]3(C)[C@@H]([C@H](C)CCOC(=O)NC4(C)CC4)CC[C@@H]23)[C@@]2(C)CC[C@@H](O)C[C@@H]12` [Example 135]: 100 to 1000 nM and 224%.
Regarding `CC[C@H]1[C@@H](O)[C@@H]2[C@H](CC[C@]3(C)[C@@H]([C@H](C)CCOC(=O)NC(C)C)CC[C@@H]23)[C@@]2(C)CC[C@@H](O)C[C@@H]12` [Example 136], the EC50 fell in the range of 100 to 1000 nM and the Emax is 185%.
For the compound `CC[C@H]1[C@@H](O)[C@@H]2[C@H](CC[C@]3(C)[C@@H]([C@H](C)CCOC(=O)NCC(C)C)CC[C@@H]23)[C@@]2(C)CC[C@@H](O)C[C@@H]12` [Example 137], the EC50 was 100 to 1000 nM and the Emax was determined as 270%.
The matching figures for `CC[C@H]1[C@@H](O)[C@@H]2[C@H](CC[C@]3(C)[C@@H]([C@H](C)CCOC(=O)NC4CCCCCC4)CC[C@@H]23)[C@@]2(C)CC[C@@H](O)C[C@@H]12` [Example 138]: 100 to 1000 nM and 297%.
Turning to `CC[C@H]1[C@@H](O)[C@@H]2[C@H](CC[C@]3(C)[C@@H]([C@H](C)CCOC(=O)NC(C)CO)CC[C@@H]23)[C@@]2(C)CC[C@@H](O)C[C@@H]12` (stereo partly shown) [Example 139], the EC50 was in the range of 100 to 1000 nM and the Emax was determined as 310%.
On to `CC[C@H]1[C@@H](O)[C@@H]2[C@H](CC[C@]3(C)[C@@H]([C@H](C)CCOC(=O)NCCSC)CC[C@@H]23)[C@@]2(C)CC[C@@H](O)C[C@@H]12` [Example 140], for which the EC50 fell in the range of 100 to 1000 nM and the Emax stood at 246%.
The matching figures for `CC[C@H]1[C@@H](O)[C@@H]2[C@H](CC[C@]3(C)[C@@H]([C@H](C)CCOC(=O)NCCc4c[nH]c5ccccc45)CC[C@@H]23)[C@@]2(C)CC[C@@H](O)C[C@@H]12` [Example 141]: 100 to 1000 nM and 293%.
The matching figures for `CC[C@H]1[C@@H](O)[C@@H]2[C@H](CC[C@]3(C)[C@@H]([C@H](C)CCOC(=O)NCC(C)(C)O)CC[C@@H]23)[C@@]2(C)CC[C@@H](O)C[C@@H]12` [Example 142]: 100 to 1000 nM and 247%.
`CC[C@H]1[C@@H](O)[C@@H]2[C@H](CC[C@]3(C)[C@@H]([C@H](C)CCOC(=O)NCCc4cccs4)CC[C@@H]23)[C@@]2(C)CC[C@@H](O)C[C@@H]12` [Example 143]: the EC50 was in the range of 100 to 1000 nM and the Emax came out at 202%.
The matching figures for `CC[C@H]1[C@@H](O)[C@@H]2[C@H](CC[C@]3(C)[C@@H]([C@H](C)CCOC(=O)NCCc4ccc(OC)c(OC)c4)CC[C@@H]23)[C@@]2(C)CC[C@@H](O)C[C@@H]12` [Example 144]: 100 to 1000 nM and 229%.
As for `CCOC(=O)C1CCN(C(=O)OCC[C@@H](C)[C@H]2CC[C@H]3[C@@H]4[C@H](O)[C@H](CC)[C@@H]5C[C@H](O)CC[C@]5(C)[C@H]4CC[C@]23C)CC1` [Example 145], the EC50 was in the range of 1000 to 10000 nM and the Emax stood at 247%.
The matching figures for `CC[C@H]1[C@@H](O)[C@@H]2[C@H](CC[C@]3(C)[C@@H]([C@H](C)CCOC(=O)N4CCCCC4)CC[C@@H]23)[C@@]2(C)CC[C@@H](O)C[C@@H]12` [Example 146]: under 100 nM and 223%.
The matching figures for `CC[C@H]1[C@@H](O)[C@@H]2[C@H](CC[C@]3(C)[C@@H]([C@H](C)CCOC(=O)N4CCCC4)CC[C@@H]23)[C@@]2(C)CC[C@@H](O)C[C@@H]12` [Example 147]: under 100 nM and 228%.
The matching figures for `CC[C@H]1[C@@H](O)[C@@H]2[C@H](CC[C@]3(C)[C@@H]([C@H](C)CCCOC(=O)N4CCC(N5CCCCC5)CC4)CC[C@@H]23)[C@@]2(C)CC[C@@H](O)C[C@@H]12` [Example 148]: 1000 to 10000 nM and 37%.
For the compound `CC[C@H]1[C@@H](O)[C@@H]2[C@H](CC[C@]3(C)[C@@H]([C@H](C)CCCOC(=O)N(C)OC)CC[C@@H]23)[C@@]2(C)CC[C@@H](O)C[C@@H]12` [Example 149], the EC50 fell in the range of 1000 to 10000 nM and the Emax came out at 232%.

(Values after patent US10457703B2, “Bile acid derivatives as FXR/TGR5 agonists and methods of use thereof” (ENANTA PHARMACEUTICALS, INC., priority 2015, dated 2019).)
